Test results reported in BindingDB's records for doi:10.1016/s0960-894x(00)00170-0 (Merck Research Laboratories, 2000).

Molecular target: Thrombin (Homo sapiens)
Experiment: The compound was tested for its ability to inhibit thrombin.

With Cc1nc(N)ccc1CNC(=O)Cn1c(C)cc2c(c1=O)NC(=O)[C@](C)(CC(C)C)C2 [N-(6-Amino-2-methyl-pyridin-3-ylmethyl)-2-((R)-3-isobutyl-3,6-dimethyl-2,8-dioxo-2,3,4,8-tetrahydro-1H-[1,7]naphthyridin-7-yl)-acetamide] as the molecule, how does the Ki read?
The Ki was 0.24 nM.
